Experimental data reported in the supplement of paper PMC10307832.

What was measured:
Assay in all cases: relative viability (nuclei count vs DMSO), 5 days (fraction); higher = more cells survive
[1] = tested on: SK-MES-1
Procedure, shortened: (§1)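 Relative viability divides the nuclei count in treated wells by that in vehicle wells. Lung cancer cell lines were seeded in 1536-well plates, dosed by pin tool the next day, and fixed and stained after 5 days in one step with final 0.05% Triton X-100, 1% formaldehyde and 1 ug/ml Hoechst. Dosing was a single drug or a fixed anchor-drug dose plus five library-drug doses (not always all listed) in √10 steps, and values are medians of duplicate plates imaged at 4×.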

[2] = tested on: NCI-H1975
Procedure, shortened: as §1

[3] = tested on: NCI-H2228
Procedure, shortened: as §1

[4] = tested on: HCC-366
Procedure, shortened: as §1

[5] = tested on: PC-3 [JPC-3]
Procedure, shortened: as §1

[6] = tested on: NCI-H520
Procedure, shortened: as §1

[7] = tested on: HCC-827
Procedure, shortened: as §1

[8] = tested on: LCLC-103H
Procedure, shortened: as §1

[9] = tested on: HCC-44
Procedure, shortened: as §1

[10] = tested on: LOU-NH91
Procedure, shortened: as §1

[11] = tested on: NCI-H1651
Procedure, shortened: as §1

[12] = tested on: NCI-H2170
Procedure, shortened: as §1

[13] = tested on: NCI-H1793
Procedure, shortened: as §1

Work on `Nc1cccc2c1CN(C1CCC(=O)NC1=O)C2=O` (centres undefined) [Lenalidomide] + Nc1nc2[nH]cc(CCc3ccc(C(=O)N[C@@H](CCC(=O)O)C(=O)O)cc3)c2c(=O)[nH]1 [Pemetrexed] (partner 0.2 µM) yielded a relative viability ([1]; first compound 2.53 µM) of 0.934, a relative viability ([1]; first compound 8 µM) of 0.888 and a relative viability ([2]; first compound 0.253 µM) of 0.29. The relative viability ([2]; first compound 0.8 µM) was 0.303, the relative viability ([2]; first compound 2.53 µM) was 0.322 and the relative viability ([2]; first compound 8 µM) was 0.332. For the same molecule, the relative viability ([3]; first compound 0.253 µM) was 0.345, the relative viability ([3]; first compound 0.8 µM) was 0.345 and the relative viability ([3]; first compound 2.53 µM) was 0.358. It also gave a relative viability ([3]; first compound 8 µM) of 0.358, a relative viability ([4]; first compound 0.253 µM) of 0.161 and a relative viability ([4]; first compound 0.8 µM) of 0.123. The relative viability ([4]; first compound 2.53 µM) was 0.206, the relative viability ([4]; first compound 8 µM) was 0.264 and the relative viability ([5]; first compound 0.253 µM) was 1.2. The relative viability ([5]; first compound 0.8 µM) was 0.755, the relative viability ([5]; first compound 2.53 µM) was 1.21 and the relative viability ([5]; first compound 8 µM) was 1.08. The relative viability ([6]; first compound 0.253 µM) was 0.722, the relative viability ([6]; first compound 0.8 µM) was 0.607 and the relative viability ([6]; first compound 2.53 µM) was 0.79. It also gave a relative viability ([6]; first compound 8 µM) of 0.689, a relative viability ([7]; first compound 0.253 µM) of 0.276 and a relative viability ([7]; first compound 0.8 µM) of 0.269. For the same molecule, the relative viability ([7]; first compound 2.53 µM) was 0.252, the relative viability ([7]; first compound 8 µM) was 0.304 and the relative viability ([8]; first compound 0.253 µM) was 0.488. For the same molecule, the relative viability ([8]; first compound 0.8 µM) was 0.476, the relative viability ([8]; first compound 2.53 µM) was 0.474 and the relative viability ([8]; first compound 8 µM) was 0.458. It also gave a relative viability ([9]; first compound 0.253 µM) of 0.616, a relative viability ([9]; first compound 0.8 µM) of 0.638 and a relative viability ([9]; first compound 2.53 µM) of 0.631. The relative viability ([9]; first compound 8 µM) was 0.762, the relative viability ([10]; first compound 0.253 µM) was 0.398 and the relative viability ([10]; first compound 0.8 µM) was 0.361. The relative viability ([10]; first compound 2.53 µM) was 0.408, the relative viability ([10]; first compound 8 µM) was 0.406 and the relative viability ([11]; first compound 0.253 µM) was 0.608. The relative viability ([11]; first compound 0.8 µM) was 0.497, the relative viability ([11]; first compound 2.53 µM) was 0.586 and the relative viability ([11]; first compound 8 µM) was 0.582. The relative viability ([12]; first compound 0.253 µM) was 0.279, the relative viability ([12]; first compound 0.8 µM) was 0.282 and the relative viability ([12]; first compound 2.53 µM) was 0.259. It also gave a relative viability ([12]; first compound 8 µM) of 0.27, a relative viability ([13]; first compound 0.253 µM) of 0.921 and a relative viability ([13]; first compound 2.53 µM) of 1.15. For the same molecule, the relative viability ([13]; first compound 8 µM) was 0.411.
